Values quoted from earlier work, collected in patent US11154521B2 (Acer Therapeutics Inc., priority 2016, dated 2021).

Experiments:
[1] = healthy adults
[2] = test system: cultured human muscle fibers; conditions: Nogalska et al. 2014
torsinA = conditions: Cho et al. PLoS One 2014

| Molecule | mean terminal half-life [1] | proinflammatory molecules and reactive oxygen species (ROS) (activated glial cells) | Aβ42 and its oligomers [2] | lysosomal activity [2] | muscle-fiber vacuolization [2] | γ-secretase activity [2] | ER stress and inhibited cAMP response to forskolin induced by torsinA mutation (torsinA) |
| --- | --- | --- | --- | --- | --- | --- | --- |
| sodium phenylbutyrate | 48 min | suppress | decrease | improve | prevent | decrease | – |
| O=C(O)CCCc1ccccc1 [4-phenylbutyrate] | – | – | – | – | – | – | corrected |
